# Assay results taken from patent publication US12251388B1, “Methods of treating ischemic stroke at risk for cerebral or cerebellar edema” (REMEDY PHARMACEUTICALS, INC., priority 2024, dated 2025).
# System: large hemispheric infarction (LHI) patients at high risk for cerebral edema
# Test: CHARM trial: mRS score at 90 days, shift analysis on 5-category ordinal scale (0/1 and 5/6 collapsed), intravenous glibenclamide versus placebo
# Assay type: in vivo, human
# Settings: for Common Odds Ratio: mITT population (aged ≤70 years), drug vs placebo
# Excerpt: The CHARM trial evaluated the safety and efficacy of intravenous glibenclamide as a treatment for large hemispheric infarction (LHI) patients at high risk for cerebral edema.
# Patients meeting the following criteria were included: • A clinical diagnosis of acute ischemic stroke in the middle cerebral artery (MCA) territory. • A large hemispheric infarction defined as; lesion volume of 80 to 300 centimeters cubed (cm^3) on magnetic resonance imaging (MRI) diffusion-weighted imaging (DWI), or computed tomography perfusion (CTP), or an Alberta Stroke Program Early CT Score (ASPECTS) of 1 to 5 with involvement of at least 2 defined cortical regions. • Screening National Institutes of Health Stroke Scale (NIHSS)>=10. • At the time of randomization, and in the Investigator's judgement, it must be feasible for study drug treatment infusion to be initiated no later than 10 hours after time of symptom onset, if known, or the time last known normal. • Participants who wake with stroke may be included if neurological and other exclusion criteria are satisfied. The time of stroke onset is to be taken as the midpoint between sleep onset (or last known to be normal) and time of waking.
# Patients meeting the following criteria were excluded: • Participant is likely to have supportive care withdrawn on the first day. • Commitment to decompressive craniectomy (DC) prior to enrollment. • Evidence of concurrent infarction in the contralateral hemisphere sufficiently serious so as to affect functional outcome. Pre-Specified Primary Endpoint
# Modified Rankin Scale (mRS) score at 90 days analyzed as a shift analysis using a 5-category ordinal scale with 0/1 and 5/6 collapsed. The primary efficacy analysis was pre-specified to be conducted in participants 18-70 years of age (inclusive) who were randomized and receive study treatment (the modified intent-to-treat [mITT] population].
# Five hundred thirty-five subjects were enrolled, with 268 treated with placebo and 267 treated with intravenous glyburide. The mITT population (the primary analysis population), those participants aged≤70 years who received any study drug, consisted of 431 subjects.
# An analysis was conducted in the mITT population to examine effects of limits on the NIHSS. […] A common odds ratio of greater than 1 indicates a positive drug effect and in the group having an NIHSS of ≤20, the common odds ratio exceeded 1.7, indicating a robust effect in favor of the drug.
# [1] = mRS scores 5 and 6 combined, baseline NIHSS ≥10 and ≤20
structure (smiles),measurement,setting,value
"COc1ccc(Cl)cc1C(=O)NCCc1ccc(S(=O)(=O)NC(=O)NC2CCCCC2)cc1 [intravenous glyburide, glyburide]",Common Odds Ratio,"NIHSS cutoff ≤18, mRS at 90 days, n=197",2.027
same,Common Odds Ratio,"NIHSS cutoff ≤19, mRS at 90 days, n=232",1.846
same,Common Odds Ratio,"NIHSS cutoff ≤21, mRS at 90 days, n=303",1.260
same,Common Odds Ratio,"NIHSS cutoff ≤22, mRS at 90 days, n=328",1.144
same,Common Odds Ratio,"NIHSS cutoff ≤23, mRS at 90 days, n=352",1.142
same,"lesion volume at the ""no effect"" level of the treatment effect (mRS)",[1],approximately 140 cm^3
same,lesion volume at which a robust treatment effect (mRS) is seen,[1],≤ 125 cm^3
